PMC11726183, “Design, synthesis, in vitro, and in silico studies of novel isatin-hybrid hydrazones as potential triple-negative breast cancer agents” (RSC Advances, 2025)
Read-outs that look alike come from different tables or passages of the source.

Legend:
Assay type in all cases: cell-based, human
[1] = test system: MDA-MB-231 breast cancer cell line; assay: MTT cytotoxicity assay on breast cancer cell line MDA-MB-231; settings: for IC50: read-out: IC50 values, breast cancer cell line MDA-MB-231; for % viability, breast cancer cell line MDA-MB-231: concentration for the value not given (6.5-50 μM tested)
Description: (§1) Breast cancer cells MDA-MB-231 were used to investigate the synthesized compounds' anticancer properties. Because these cancer cells lack estrogen receptors (ER), progesterone receptors (PR), and human epidermal growth factor receptor 2 (HER2), they are also known as triple-negative breast cancer cells (TNBC).[44] These receptors are generally utilized as target proteins in cancer treatment and are often overexpressed in cancer cells. […] At the same time human normal breast epithelial cell line MCF-10A was kept as a control in the experiment to check out whether the cytotoxic effects of the compounds were selective for malignant cells in comparison to non-malignant cells. Variable concentrations (6.5 μM, 12.5 μM, 25 μM, and 50 μM) of the synthesized compounds 5–25 were used to investigate the prohibition of growth in the human breast cancer cell line MDA-MB-231 and the non-tumorigenic MCF-10. The MTT [3-(4,5-dimethylthiazol-2-yl)-2,5-diphenyltetrazolium bromide] assay was used to determine the reduction in cancer cell viability induced by cytotoxic agents. […] IBM SPSS Statistics 26 software was used for the analysis of dose–response and computation of IC50 values.
(§2) In vitro, cytotoxicity assay for the synthetic derivatives was determined by performing an MTT (yellow tetrazolium salt, 3-(4,5-dimethylthizol-2-yl)-2,5-diphenyl tetrazolium bromide) assay by using an aggressive breast cancer cell line MDA-MB-231.[51] Human breast normal cell line MCF-10A was kept as a control in the study.[52,53] Cells were cultured in DMEM augmented with 10% FBS and 1% antibiotics (100 U per mL penicillin). The cells were sowed in a 96-well plate at a 1.0 × 10^4 cells per well density and incubated for 24 h at 37 °C in 5% CO2. The medium was discarded, and both the cell lines were treated with different concentrations (6.5 μM, 12.5 μM, 25 μM, and 50 μM) of synthetic hydrazone derivatives.[54] After 48 h of incubation 20 μL of MTT solution (5 mg mL^−1) was pipetted into each well and incubated for another 4 h.[55] Later the medium was discarded, and the precipitate of formazan was dissolved in DMSO. The absorbance of the mixtures was calculated using a microplate reader at 570 nm. Triplicates were used for performing all experiments and the cytotoxicity was expressed as a percentage of cell viability compared to untreated control cells.[54]1 [drawing 22]

[2] = MTT cytotoxicity assay on normal breast epithelial cell line MCF-10A (control); settings: human, MTT, 48 h, concentration for the value not given (6.5-50 μM tested)
Description: as §1, §2

normal cell line MCF-10 = assay: as above; settings: for IC50: read-out: IC50 values, normal cell line MCF-10
Description: as §1, §2

[3] = Homo sapiens, MDA-MB-231, MTT, 48 h
[4] = MCF-10A normal breast epithelial cells
[5] = Homo sapiens, MCF10, MTT, 48 h, unit from text (highest concentration 50 μM)

Row | Molecule | IC50 ([1]; Homo sapiens, MDA-MB-231, 48 h) | % viability, breast cancer cell line MDA-MB-231 ([1]; MTT, 48 h) | viability at 48 h [2] | IC50 (normal cell line MCF-10; Homo sapiens, MCF10, 48 h) | IC50 [1, 3] | viability at 48 h [2, 4] | IC50 (normal cell line MCF-10; [5]) | IC50 ([1]; MTT, 48 h) | % viability, normal cell line MCF-10 (normal cell line MCF-10; MTT, 48 h, concentration for the value not given (6.5-50 μM tested)) | IC50 (normal cell line MCF-10; MTT, 48 h, unit from text (highest concentration 50 μM))
1 | O=C(N/N=C1/C(=O)N(Cc2ccccc2)c2ccccc21)c1cccc(Cl)c1 [Compound 5, (E)-N′-(1-Benzyl-2-oxoindolin-3-ylidene)-3-chlorobenzohydrazide] | 26.4 ± 0.8 µM | 27.11% | 80.1% | > 50 µM | – | – | – | – | – | –
2 | COc1ccc(C(=O)N/N=C2/C(=O)N(Cc3ccccc3)c3ccccc32)cc1 [Compound 6, (E)-N′-(1-Benzyl-2-oxoindolin-3-ylidene)-4-methoxybenzohydrazide] | 25.8 ± 0.4 µM | 26.13% | 81.1% | > 50 µM | – | – | – | – | – | –
3 | Cc1ccc(F)c(C(=O)N/N=C2/C(=O)N(Cc3ccccc3)c3ccccc32)c1 [Compound 7, (E)-N′-(1-Benzyl-2-oxoindolin-3-ylidene)-2-fluoro-5-methylbenzohydrazide] | 33.6 ± 0.5 µM | 30.01% | 79.3% | > 50 µM | – | – | – | – | – | –
4 | O=C(N/N=C1/C(=O)N(Cc2ccccc2)c2ccccc21)c1ccncc1 [Compound 8, (E)-N′-(1-Benzyl-2-oxoindolin-3-ylidene)isonicotinohydrazide] | 16.8 ± 0.9 µM | 19.13% | 78.1% | > 50 µM | – | – | – | – | – | –
5 | Cc1ccc(C(=O)N/N=C2/C(=O)N(Cc3ccccc3)c3ccccc32)cc1F [Compound 9, (E)-N′-(1-Benzyl-2-oxoindolin-3-ylidene)-3-fluoro-4-methylbenzohydrazide] | 27.4 ± 0.5 µM | 25.61% | 76.2% | > 50 µM | – | – | – | – | – | –
6 | O=C(Cc1ccccc1C(F)(F)F)N/N=C1/C(=O)N(Cc2ccccc2)c2ccccc21 [Compound 10, (E)-N′-(1-Benzyl-2-oxoindolin-3-ylidene)-2-(2-(trifluoromethyl)phenyl)acetohydrazide] | – | 29.12% | – | – | 25.4 ± 0.8 µM | 84.9% | > 50 µM | – | – | –
7 | O=C(N/N=C1/C(=O)N(Cc2ccccc2)c2ccccc21)c1ccccc1 [Compound 11, (E)-N′-(1-Benzyl-2-oxoindolin-3-ylidene)benzohydrazide] | 28.4 ± 0.5 µM | 25.41% | 82% | > 50 µM | – | – | – | – | – | –
8 | O=C(Cc1ccc(C(F)(F)F)cc1)N/N=C1/C(=O)N(Cc2ccccc2)c2ccccc21 [Compound 12, (E)-N′-(1-Benzyl-2-oxoindolin-3-ylidene)-2-(4-(trifluoromethyl)phenyl)acetohydrazide] | – | 36.52% | – | – | 31.2 ± 0.9 µM | 80.4% | > 50 µM | – | – | –
9 | O=C(N/N=C1/C(=O)N(Cc2ccccc2)c2ccccc21)c1cccc2ccccc12 [Compound 13, (E)-N′-(1-Benzyl-2-oxoindolin-3-ylidene)-1-naphthohydrazide] | 28.6 ± 0.5 µM | 29.01% | 79.1% | > 50 µM | – | – | – | – | – | –
10 | O=C(N/N=C1/C(=O)N(Cc2ccccc2)c2ccccc21)c1ccc(Br)cc1 [Compound 14, (E)-N′-(1-Benzyl-2-oxoindolin-3-ylidene)-4-bromobenzohydrazide] | 36.8 ± 0.7 µM | 42.11% | 85.4% | > 50 µM | – | – | – | – | – | –
11 | Cc1ccccc1C(=O)N/N=C1/C(=O)N(Cc2ccccc2)c2ccccc21 [Compound 15, (E)-N′-(1-Benzyl-2-oxoindolin-3-ylidene)-2-methylbenzohydrazide] | 24.4 ± 0.6 µM | 23.77% | 84.3% | > 50 µM | – | – | – | – | – | –
12 | O=C(N/N=C1/C(=O)N(Cc2ccccc2)c2ccccc21)c1ccco1 [Compound 16, (E)-N′-(1-Benzyl-2-oxoindolin-3-ylidene)furan-2-carbohydrazide] | 29.2 ± 0.7 µM | 29.40% | 79.9% | > 50 µM | – | – | – | – | – | –
13 | O=C(N/N=C1/C(=O)N(Cc2ccccc2)c2ccccc21)c1ccc(C(F)(F)F)cc1 [Compound 17, (E)-N′-(1-Benzyl-2-oxoindolin-3-ylidene)-4-(trifluoromethyl)benzohydrazide] | 37.5 ± 0.9 µM | 38.09% | 77.6% | > 50 µM | – | – | – | – | – | –
14 | O=C(N/N=C1\C(=O)N(Cc2ccccc2)c2ccccc21)c1cccnc1 [Compound 18, (Z)-N′-(1-Benzyl-2-oxoindolin-3-ylidene)nicotinohydrazide] | 34.6 ± 0.4 µM | 41.19% | 85.1% | > 50 µM | – | – | – | – | – | –
15 | O=C(Cc1ccccc1Nc1c(Cl)cccc1Cl)N/N=C1/C(=O)N(Cc2ccccc2)c2ccccc21 [Compound 19, (E)-N′-(1-Benzyl-2-oxoindolin-3-ylidene)-2-(2-((2,6-dichlorophenyl)amino)phenyl) acetohydrazide] | – | 37.23% | – | – | 29.2 ± 0.4 µM | 80.3% | > 50 µM | – | – | –
16 | O=C(N/N=C1/C(=O)N(Cc2ccccc2)c2ccccc21)c1ccccc1Cl [Compound 20, (E)-N′-(1-Benzyl-2-oxoindolin-3-ylidene)-2-chlorobenzohydrazide] | 28.8 ± 0.6 µM | 34.56% | 77.6% | > 50 µM | – | – | – | – | – | –
17 | O=C(Cc1ccc(F)cc1F)N/N=C1/C(=O)N(Cc2ccccc2)c2ccccc21 [Compound 21, (E)-N′-(1-Benzyl-2-oxoindolin-3-ylidene)-2-(2,4-difluorophenyl)acetohydrazide] | 22.2 ± 0.7 µM | 22.46% | 85.7% | > 50 µM | – | – | – | – | – | –
18 | O=C(N/N=C1/C(=O)N(Cc2ccccc2)c2ccccc21)c1ccccc1Br [Compound 22, (E)-N′-(1-Benzyl-2-oxoindolin-3-ylidene)-2-bromobenzohydrazide] | 26.1 ± 0.7 µM | 21.28% | 78.4% | > 50 µM | – | – | – | – | – | –
19 | O=C(Cc1ccccc1)N/N=C1/C(=O)N(Cc2ccccc2)c2ccccc21 [Compound 24, (E)-N′-(1-Benzyl-2-oxoindolin-3-ylidene)-2-phenylacetohydrazide] | – | 29.54% | – | – | 24.5 ± 0.8 µM | 78.5% | > 50 µM | – | – | –
20 | O=C(N/N=C1/C(=O)N(Cc2ccccc2)c2ccccc21)c1cc2ccccc2cc1O [Compound 25, (E)-N′-(1-Benzyl-2-oxoindolin-3-ylidene)-3-hydroxy-2-naphthohydrazide] | 30.6 ± 0.4 µM | 31.67% | 76.3% | > 50 µM | – | – | – | – | – | –
21 | (E)-1-Benzyl-3-((2-(4-nitrophenyl)-2-oxoethyl)imino)indolin-2-one [Compound 23] | – | 17.37% | – | – | – | – | – | 15.8 ± 0.6 µM | 75.23% | > 50 µM
